Experimental data: patent US7189851B2, “Condensed heterocyclic compounds as calcitonin agonists” (SmithKline Beecham Corporation, priority 2002, dated 2007)

Biological target: T1, human calcitonin-2 receptor (hCT2R) (Homo sapiens, UniProt P30988)
T1 construct: expressed in transfected cells; host or cells: Chinese hamster ovary (CHO) cells co-transfected with a 6CRE-luciferase reporter; receptor cDNA cloned from the MCF7 cell line
T1 sequence (P30988 25-474): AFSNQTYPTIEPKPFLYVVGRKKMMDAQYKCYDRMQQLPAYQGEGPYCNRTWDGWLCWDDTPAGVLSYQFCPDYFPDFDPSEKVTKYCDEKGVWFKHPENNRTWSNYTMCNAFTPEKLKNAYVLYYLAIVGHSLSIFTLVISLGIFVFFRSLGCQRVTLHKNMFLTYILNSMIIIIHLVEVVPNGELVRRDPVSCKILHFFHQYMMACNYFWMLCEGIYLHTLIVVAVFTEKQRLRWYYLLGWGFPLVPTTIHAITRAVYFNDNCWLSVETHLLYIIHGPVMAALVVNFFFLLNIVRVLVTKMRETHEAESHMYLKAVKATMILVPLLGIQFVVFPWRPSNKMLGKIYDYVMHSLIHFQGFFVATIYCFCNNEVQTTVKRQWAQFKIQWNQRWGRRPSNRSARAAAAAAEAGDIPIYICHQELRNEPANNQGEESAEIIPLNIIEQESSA
Test: HCT2R CRE-luc reporter assay
Assay type: cell-based
Conditions: agonist activity; CHO-6CRE-luciferase cells co-transfected with hCT2R
Description: The compounds of the present invention elicit important and measurable pharmacological responses. As is to be expected, the efficacy of any compound will vary depending upon the particular assay and the particular compound tested.
All recombinant cell line human calcitonin receptor assays were carried out with the human receptor corresponding to GeneBank Accession Number X69920, [See: Molecular Pharmacology 46 (2):246–255, 1994, Cloning and characterization of an abundant subtype of the human calcitonin receptor] cloned from the MCF7 cell line (American Type Tissue Collection, Manassas, Va., USA, Catalog # HTB-22). Human calcitonin receptor (hCT2R) was cloned as a HindIII fragment into plasmid BS SKII. Chinese hamster ovary cells were co-transfected with a 6CRE-luciferase reporter system and hCTR2. HEK cells were transfected with hCTR2.
CHO-6CRE-luciferase cells with or without co-expressed hCTR2 were grown in suspension in commercially available cell culture medium supplemented with 2 mM L-glutamine and 5% fetal bovine serum (FBS). Sixteen hours before each assay, cells were collected and resuspended at 1,000,000 cells/ml in media without FBS. Cells were cultured in spinner flasks at 37° C. in an atmosphere of 5% CO2. At the time of the assay, cells were pelleted by centrifugation and resuspended in media without FBS at a concentration of 250,000 cells/ml. The cell suspension was pipetted into black 96-well microtiter plates (25,000 cells/well) containing test compounds. After a four-hour incubation at 37° C., media was aspirated, followed by addition of 50 microliters of LucLite and PBS (1:1) containing 1 mM CaCl2 and 1 mM MgCl2. The plates were sealed and incubated for 20 minutes in the dark. Luminescent responses were measured using a Packard TopCount.
Structure activity studies were performed on CHO-6CRE-luciferase cells with or without co-transfected hCT2R. Forty-eight hours before each assay, cells were removed with trypsin and plated in 96-well microtiter plates at a concentration of 25–100,000 cells/well. Sixteen hours before each assay, FBS-containing media was removed and replaced with media without FBS. Compounds were added and incubated for four hours at 37° C. After incubation, media was aspirated and 50 microliters of LucLite in PBS (1:1) containing 1 mM CaCl2 and 1 mM MgCl2 were added to each well. Plates were sealed and incubated for 20 minutes in the dark before quantification of luminescence on a Packard TopCount.
Concentration-response curves were calculated and potencies were reported as the concentration of compounds producing half-maximal responses (EC50) or the negative log of the concentration of compounds producing half-maximal responses (pEC50).

With `CCOC(=O)c1c(CCc2ccc(OC)cc2)nc2c(c1-c1ccc(C(=O)NCc3ccco3)cc1)C(=O)N1CCC[C@H]21` [Example 1, Ethyl (9aR)-4-(4-{[(2-furylmethyl)amino]carbonyl}phenyl)-2-[2-(4-methoxyphenyl)ethyl]-5-oxo-7,8,9,9a-tetrahydro-5H-pyrido[2,3-α]pyrrolizine-3-carboxylate] the EC50 was 10 to 100 nM.
`CCOC(=O)c1c(CCc2ccc(C(F)(F)F)cc2)nc2c(c1C1CC1C(=O)NCc1ccccc1)C(=O)N1CCC[C@@H]21` (stereo partly drawn) [Example 3, Ethyl (9aS)-4-{2-[(benzylamino)carbonyl]cyclopropyl}-5-oxo-2-{2-[4-(trifluoromethyl)phenyl]ethyl}-7,8,9,9a-tetrahydro-5H-pyrido[2,3-a]pyrrolizine-3-carboxylate] was tested, and the EC50 was 100 to 1000 nM.
`CCOC(=O)c1c(Cc2ccc(F)cc2F)nc2c(c1-c1ccc(C(=O)NCc3ccco3)cc1)C(=O)N1CCC[C@@H]21` [Example 6, Ethyl (9aS)-2-(2,4-difluorobenzyl)-4-(4-{[(2-furylmethyl)amino]carbonyl}phenyl)-5-oxo-7,8,9,9a-tetrahydro-5H-pyrido[2,3-α]pyrrolizine-3-carboxylate] was tested, and the EC50 was 10 to 100 nM.
For `CCOC(=O)c1c(CCc2ccc(F)cc2)nc2c(c1-c1ccc(C(=O)NCc3ccco3)cc1)c(=O)n1n2CCC1` [Example 8, Ethyl 2-[2-(4-fluorophenyl)ethyl]-4-(4-{[(2-furylmethyl)amino]carbonyl}phenyl)-5-oxo-8,9-dihydro-5H,7H-pyrazolo[1′,2′:1,2]pyrazolo[3,4-b]pyridine-3-carboxylate], the EC50 was no more than 10 nM.
`CCOC(=O)c1c(CCc2ccc(F)cc2)nc2c(c1-c1ccc(C(=O)NCc3ccco3)s1)c(=O)n1n2CCC1` [Example 9, Ethyl 2-[2-(4-fluorophenyl)ethyl]-4-(5-{[(2-furylmethyl)amino]carbonyl}-2-thienyl)-5-oxo-8,9-dihydro-5H,7H-pyrazolo[1′,2′:1,2]pyrazolo[3,4-b]pyridine-3-carboxyl] showed an EC50 of no more than 10 nM.
`CCOC(=O)c1c(C(F)(F)F)nc2c(c1-c1ccc(C(=O)NCc3cccc(F)c3)cc1)c(=O)n1n2CCC1` [Example 10, Ethyl 4-(4-{[(3-fluorobenzyl)amino]carbonyl}phenyl)-5-oxo-2-(trifluoromethyl)-8,9-dihydro-5H,7H-pyrazolo[1′,2′:1,2]pyrazolo[3,4-b]pyridine-3-carboxylate] showed an EC50 of no less than 1000 nM.
`O=C(NCc1ccco1)c1ccc(-c2cc(CCc3ccc(C(F)(F)F)cc3)nc3c2C(=O)N2CCC[C@@H]32)cc1` [Example 14, 4-((9aS)-5-oxo-2-{2-[4-(trifluromethyl)phenyl]ethyl}-7,8,9,9a-tetrahydro-5H-pyrido[2,3-a]pyrrolizin-4-yl)-N-(2-furylmethyl)benzamide] showed an EC50 of 100 to 1000 nM.
For `CCOC(=O)c1c(CCc2ccc(F)cc2)nc2c(c1-c1cc(C(=O)NC3CCc4ccccc43)cs1)C(=O)N1CCC[C@@H]21` (stereo partly drawn) [Example 15, Ethyl(9aS)-4-{4-[(2,3-dihydro-1H-inden-1-ylamino)carbonyl]-2-thieny}-2-[2-(4-fluorophenyl)ethyl]-5-oxo-7,8,9,9a-tetrahydro-5H-pyrido[2,3-a]pyrrolizine-3-carboxylate], the EC50 was no more than 10 nM.
In the case of `CCOC(=O)c1c(CCc2ccc(F)cc2)nc2c(c1-c1cc(C(=O)NC3CCc4ccccc43)co1)C(=O)N1CCC[C@@H]21` (stereo partly drawn) [Example 17, Ethyl(9aS)-4-{4-[(2,3-dihydro-1H-inden-1-ylamino)carbonyl]-2-furyl}-2-[2-(4-fluorophenyl)ethyl]-5-oxo-7,8,9,9a-tetrahydro-5H-pyrido[2,3-a]pyrrolizine-3-carboxylate], the EC50 is reported as no more than 10 nM.
`CCOC(=O)c1c(CCc2ccc(F)cc2)nc2c(c1-c1ccc(C(=O)N[C@@H]3CCc4ccccc43)s1)C(=O)N1CCC[C@@H]21` [Example 18, Ethyl(9aS)-4-(5-{[(1R)-2,3-dihydro-1H-inden-1-ylamino]carbonyl}-2-thienyl)-2-[2-(4-fluorophenyl)ethyl]-5-oxo-7,8,9,9a-tetrahydro-5H-pyrido[2,3-a]pyrrolizine-3-carboxylate] showed an EC50 of no more than 10 nM.
`CCOC(=O)c1c(Cc2ccc(F)cc2)nc2c(c1-c1ncc(C(=O)N[C@@H]3CCc4ccccc43)s1)C(=O)N1CCC[C@@H]21` [Example 19, Ethyl (9aS)-4-(5-{[(1R)-2,3-dihydro-1H-inden-1-ylamino]carbonyl}-1,3-thiazol-2-yl)-2-(4-fluorobenzyl)-5-oxo-7,8,9,9a-tetrahydro-5H-pyrido[2,3-a]pyrrolizine-3-carboxylate] gave an EC50 of no more than 10 nM.
`O=C(N[C@@H]1CCc2ccccc21)c1ccc(-c2cc(Cc3ccc(F)cc3)nc3c2C(=O)N2CCC[C@@H]32)cc1` [Example 20, 4-[(9aS)-2-(4-fluorobenzyl)-5-oxo-7,8,9,9a-tetrahydro-5H-pyrido[2,3-a]pyrrolizin-4-yl]-N-[(1R)-2,3-dihdro-1H-inden-1-yl]benzamide] was tested, and the EC50 was 10 to 100 nM.
`CCOC(=O)c1c(CCc2ccc(C(F)(F)F)cc2)nc2c(c1-c1nc(C(=O)N[C@@H]3CCc4ccccc43)co1)c(=O)n1n2CCC1` [Example 21, Ethyl 4-(4-{[(1R)-2,3-dihydro-1H-inden-1-ylamino]carbonyl}-1,3-oxazol-2-yl)-5-oxo-2-{2-[4-(trifluoromethyl)phenyl]ethyl}-8,9-dihydro-5H,7H-pyrazolo[1′, 2′:1,2]pyrazolo[3,4-b]pyridine-3-carboxylate] showed an EC50 of 10 to 100 nM.
For `CCOC(=O)c1c(Cc2ccc(F)cc2F)nc2c(c1-c1cnc(C(=O)N[C@@H]3CCc4ccccc43)cn1)C(=O)N1CCC[C@@H]21` [Example 22, Ethyl(9aS)-2-(2,4-difluorobenzyl)-4-(5-{[(1R)-2,3-dihydro-1H-inden-1-ylamino]carbonyl}-2-pyrazinyl)-5-oxo-7,8,9,9a-tetrahydro-5H-pyrido[2,3-a]pyrrolizine-3-carboxylate], the EC50 was 10 to 100 nM.
For `O=C(NC1CCc2ccccc21)c1ccc(-c2c(NC(=O)C(F)(F)F)c(Cc3ccc(F)cc3F)nc3c2C(=O)N2CCCC32)cc1` [Example 23, 4-{(9aS)-2-(2,4-difluorobenzyl)-5-oxo-3-[(trifluoroacetyl)amino]-7,8,9,9a-tetrahydro-5H-pyrido[2,3-α]pyrrolizin-4-yl}-N-[(1R)-2,3-dihydro-1H-inden-1-yl]benzamide], the EC50 was 10 to 100 nM.
In the case of `O=C(NCc1ccco1)c1ccc(-c2c(NC(=O)C3CCCC3)c(CCc3ccc(C(F)(F)F)cc3)nc3c2C(=O)N2CCC[C@@H]32)cc1` [Example 24, 4-((9aS)-3-[(Cyclopentylcarbonyl)amino]-5-oxo-2-{2-[4-(trifluoromethyl)phenyl]ethyl}-7,8,9,9a-tetrahydro-5H-pyrido[2,3-a]pyrrolizin-4-yl)-N-(2-furylmethyl)benzamide], the EC50 is reported as 100 to 1000 nM.
`CCC(=O)Nc1c(CCc2ccc(C(F)(F)F)cc2)nc2c(c1-c1ccc(C(=O)NCc3ccco3)cc1)C(=O)N1CCC[C@@H]21` [Example 25, 4-((9aS)-3-[(Ethylcarbonyl)amino]-5-oxo-2-{2-[4-(trifluoromethyl)phenyl]ethyl}-7,8,9,9a-tetrahydro-5H-pyrido[2,3-α]pyrrolizin-4-yl)-N-(2-furylmethyl)benzamide] gave an EC50 of 100 to 1000 nM.
In the case of `O=C(NCc1ccco1)c1ccc(-c2c(NC(=O)C3CC3)c(CCc3ccc(C(F)(F)F)cc3)nc3c2C(=O)N2CCC[C@@H]32)cc1` [Example 26, 4-((9aS)-3-[(Cyclopropylcarbonyl)amino]-5-oxo-2-{2-[4-(trifluoromethyl)phenyl]ethyl}-7,8,9,9a-tetrahydro-5H-pyrido[2,3-α]pyrrolizin-4-yl)-N-(2-furylmethyl)benzamide], the EC50 is reported as 100 to 1000 nM.
For `O=C(NCc1ccco1)c1ccc(-c2c(NC(=O)C(F)(F)F)c(CCc3ccc(C(F)(F)F)cc3)nc3c2C(=O)N2CCC[C@@H]32)cc1` [Example 27, 4-((9aS)-3-[(Trifluoromethylcarbonyl)amino]-5-oxo-2-{2-[4-(trifluoromethyl)phenyl]ethyl}-7,8,9,9a-tetrahydro-5H-pyrido[2,3-α]pyrrolizin-4-yl)-N-(2-furylmethyl)benzamide], the EC50 was 100 to 1000 nM.
